The structures appear in SMILES notation.

One may read the IC50 as the concentration that inhibits the measured activity by half.

A short description of this test: Binding affinity against sigma receptor in bovine cerebellum using 2.0 nM [3H]haloperidol in the presence of 25 nM unlabeled spiperone.

With `O=C(CCN1CC=C(c2ccc(Cl)cc2)CC1)c1ccccc1Cl` [1-(2-Chloro-phenyl)-3-[4-(4-chloro-phenyl)-3,6-dihydro-2H-pyridin-1-yl]-propan-1-one], the IC50 worked out at 0.105 µM.
